Test results reported in patent publication US9737517B2, “Pharmaceutical use of hexahydro-dibenzo[a,g]quinolizine compounds” (SHANGHAI INSTITUTE OF MATERIA MEDICA, CHINESE ACADEMY OF …, priority 2013, dated 2017).

Key:
α1B-AR = molecular target: T1, α1B-AR (Homo sapiens, UniProt P35368); test: Tag-lite receptor binding assay, HEK293 cells expressing SNAP-α1B-AR
T1 construct: expressed in transfected cells; host or cells: HEK293
T1 sequence (P35368 1-520): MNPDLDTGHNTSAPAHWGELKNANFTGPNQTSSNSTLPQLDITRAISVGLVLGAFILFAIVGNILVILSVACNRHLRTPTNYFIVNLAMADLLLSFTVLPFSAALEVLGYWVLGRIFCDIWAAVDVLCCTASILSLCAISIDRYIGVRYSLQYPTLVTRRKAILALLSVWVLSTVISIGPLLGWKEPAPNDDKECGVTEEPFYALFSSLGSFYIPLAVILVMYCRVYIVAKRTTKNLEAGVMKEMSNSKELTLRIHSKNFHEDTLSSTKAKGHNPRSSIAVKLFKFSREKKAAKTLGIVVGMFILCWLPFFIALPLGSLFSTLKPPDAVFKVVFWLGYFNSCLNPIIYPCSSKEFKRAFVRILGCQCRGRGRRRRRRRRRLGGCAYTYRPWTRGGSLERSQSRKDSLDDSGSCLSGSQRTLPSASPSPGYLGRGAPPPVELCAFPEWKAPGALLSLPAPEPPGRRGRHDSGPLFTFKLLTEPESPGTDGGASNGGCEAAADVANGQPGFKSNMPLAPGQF
Source text: (§1) Tag-lite assay was used to study receptor binding activity. Tag-lite assay was a combination of SNAP-Tag and HTRF technology, and was used to analyze surface receptors on live cell. SNAPs were small tag fusion proteins which could irreversibly, specifically and covalently bind to substrates via benzylmethyl, and the substrates were benzylmethyl guanine and benzylmethyl cytosine. Substrates and various dyes formed derivatives, and through covalent reaction, the dye was labeled onto SANPs. Plasmid was constructed using pSNAP and α1-AR encoding gene. After transfection into cells, N-terminal fusion protein of SNAP and α1-AR was expressed. The substrate and HTRF fluorescent dye (donor compound Lumi4-Tb) formed a derivative which reacted with SANP-α1-AR fusion protein so that Tb was labeled onto α1-AR. After adding acceptor fluorescent dye-labeled ligand, the receptor and ligand binding experiment was performed.
(§2) HEK293 cells stably expressing SNAP-α1A-AR, SNAP-α1B-AR, SNAP-α1D-AR were seeded in 3 cm dishes, and cultured for 24 hours. 100 nM Tag-lite SNAP Lumi4Tb was added and incubated for 1 h in an incubator. Cells were detached and washed with a labeling buffer for 4 times, and then was added into a 384-well plate in a volume of 10 μL per well. […] After incubation at room temperature for 1 hour, fluorescence intensity changes caused by cell receptor and ligand changes were detected using 665 nm (acceptor) and 620 nm (donor) at same time.
(§3) After incubation with different drugs, the reaction rate of cells to 1-AR fluorescein-labeled known ligand was calculated as follows: Reaction rate %=(D−B)/(S−B)*100%
(§4) The reaction rate of the same drug at different doses was tested using GraphPad Prism software by non-linear regression analysis, and the dose-response curve was obtained and Ki values was measured. Data were obtained from three separate experiments, and each experiment includes three duplicate wells.

urethra smooth muscle = test: In vitro urethra smooth muscle experiment (norepinephrine-induced contraction); set-up: species or system Wistar rats; Urethra inhibition rate (%): concentration or dose not given beside the values; details: for IC50: isolated rat prostatic urethra, norepinephrine 3×10^−4 mol/L; for Urethra inhibition rate (%): norepinephrine-induced contraction; for Aorta/Urethra: selectivity ratio of IC50 values
Experimental: Healthy male Wistar rats were hit head to cause faint. The abdominal cavity and the pubic symphysis was quickly cut so as to quickly remove the prostatic urethra, which was immediately placed into a dish filled with 4° C. Kerbs-Henseleit solution (K-H solution). The surrounding tissue were carefully separated, and muscle strips about 3-5 mm were obtained, and the lower end was fixed onto a 20 mL of thermostatic bath and the upper end was connected onto a pressure transducer. Nutrient liquid was K-H solution, and carbogen (95% oxygen and 5% carbon dioxide) was aerated, and the bath temperature was 37° C., and resting tension applied was 0.5 g. The nutrient liquid was replaced every 6-8 mins. Until baseline stabilized, norepinephrine was added with a final concentration of 3×10^−4 mol/L in bath tube. When the contraction curve reached the highest point, it was rinsed immediately to recover to baseline levels. When baseline was stabilized, test drug with different concentrations was added respectively, and incubated 3-5 mins. 60 μL 1×10^−1 M norepinephrine was added with a final concentration of 3×10^−4 mol/L in bath tube, and the contraction curve was recorded.

[1] = system: vascular smooth muscle (thoracic aorta); test: In vitro vascular smooth muscle experiment (norepinephrine-induced contraction of thoracic aorta rings); set-up: species or system Wistar rats; details: isolated rat thoracic aorta rings, norepinephrine 10^−7 mol/L
Experimental: Healthy male Wistar rats were hit head to cause faint. The abdominal cavity was quickly cut, and the thoracic aorta was taken out. The attached tissue was separated and cut into 2-3 mm vascular rings. The experiment was carried out in the same manner as in urethral smooth muscle experiment. The resting tension applied was 1 g, and when baseline was stabilized, norepinephrine was added with a final concentration of 10^−7 mol/L in bath tube. When the contraction curve reached the highest point, rinse was performed immediately to recover to baseline levels. When baseline was stabilized, test drug with different concentrations was added respectively, and incubated 3-5 mins. 20 μL 1×10^−4 M norepinephrine was added with a final concentration of 10^−7 mol/L in bath tube, and contraction curve was recorded.

α1A-AR = molecular target: T2, α1A-AR (Homo sapiens, UniProt P35348); test: Tag-lite receptor binding assay, HEK293 cells expressing SNAP-α1A-AR; details: for IC50: Tag-lite binding, HEK293 SNAP-α1A-AR; for α1B/α1A: ratio of Tag-lite binding values
T2 construct: expressed in transfected cells; host or cells: HEK293
T2 sequence (P35348 1-466): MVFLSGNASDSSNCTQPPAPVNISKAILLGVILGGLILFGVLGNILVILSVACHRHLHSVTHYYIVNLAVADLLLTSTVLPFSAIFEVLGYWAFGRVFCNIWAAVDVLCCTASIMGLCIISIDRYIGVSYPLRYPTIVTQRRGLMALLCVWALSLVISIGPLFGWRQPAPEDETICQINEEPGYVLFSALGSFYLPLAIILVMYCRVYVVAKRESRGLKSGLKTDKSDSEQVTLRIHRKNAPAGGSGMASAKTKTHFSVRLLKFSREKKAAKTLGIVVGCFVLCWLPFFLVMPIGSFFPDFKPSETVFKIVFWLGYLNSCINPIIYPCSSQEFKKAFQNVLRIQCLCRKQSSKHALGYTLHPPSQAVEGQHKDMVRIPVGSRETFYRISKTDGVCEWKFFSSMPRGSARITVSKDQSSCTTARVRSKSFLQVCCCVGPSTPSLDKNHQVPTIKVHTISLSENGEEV
Source text: as §1, §2, §3, §4

SMILES	IC50 (α1B-AR)	IC50 (urethra smooth muscle)	selectivity (Aorta/Urethra) relative to Silodosin (urethra smooth muscle; isolated rat tissues)	selectivity (Aorta/Urethra) relative to tamsulosin (urethra smooth muscle; isolated rat tissues)	urethra suppression rate compared with positive drugs (urethra smooth muscle; isolated rat urethra)	Urethra inhibition rate (%) (urethra smooth muscle; isolated rat urethra)	Aorta/Urethra (urethra smooth muscle; isolated rat tissues)	IC50 [1]	IC50 (α1A-AR)	α1B/α1A (α1A-AR)
COc1cc2c(cc1OC)CN1CCc3cc4c(cc3[C@@H]1C2)OCO4 [DC037009, S-(−)-2,3-methylenedioxy-10,11-dimethoxy-5,8,13,13a-tetrahydro-6H-dibenzo[a,g]quinolizine]	128 nM	1.66 nM	11 folds	1671 folds	comparable to that of the positive drugs	80%	873	1420 nM	2.83 nM	45.3
COc1cc2c(cc1OCc1ccccc1)C[C@H]1c3cc4c(cc3CCN1C2)OCO4 [DC037016]	560 nM	5.12 nM	–	–	–	38%	1953	10000 nM	16.6 nM	33.8
C[C@H](Cc1cc2c(c(C(N)=O)c1)N(CCCO)CC2)NCCOc1ccccc1OCC(F)(F)F [Silodosin, reference compound]	0.61 nM	0.82 nM	–	–	–	88%	76.8	63 nM	0.07 nM	8.7
